Structures are written as SMILES.

The results in this text go back to patent US20260373266A1, “PROTEIN DEGRADERS AND USES THEREOF” (KYMERA THERAPEUTICS, INC., priority 2022, published 2026).

T1 sequence (Q9Y4B6 1077-1390): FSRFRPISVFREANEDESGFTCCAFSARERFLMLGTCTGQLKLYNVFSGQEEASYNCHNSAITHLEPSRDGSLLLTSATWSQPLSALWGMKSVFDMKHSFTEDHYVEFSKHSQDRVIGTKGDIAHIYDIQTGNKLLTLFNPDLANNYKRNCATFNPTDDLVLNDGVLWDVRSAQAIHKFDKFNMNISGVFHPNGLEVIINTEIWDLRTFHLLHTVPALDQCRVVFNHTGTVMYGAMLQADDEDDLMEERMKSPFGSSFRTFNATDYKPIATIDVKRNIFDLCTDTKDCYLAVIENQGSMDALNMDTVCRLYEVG

This assay concerns the target T1, DCAF1 WD40 domain (residues 1077-1390) (Homo sapiens, UniProt Q9Y4B6).
T1 construct: DCAF1 WD40 domain (residues 1077-1390)
In words: DCAF1 binding assay by SPR (Biacore 8K+), DCAF1-3 KD. The following applies: 25 °C, read-out: DCAF1-3 SPR (KD).
As for `COCCN1CCN(c2ccnc(NC3CCCN(c4cccc(F)c4)C3)n2)CC1` (stereo not shown) [I-28], the Kd was in the range of 10 to 100 µM.

As for `Cc1c(F)ccc(F)c1-c1[nH]ncc1C(=O)N[C@H](c1cccc(Cl)c1)[C@@H]1CCOC1` [I-967], the Kd was 10 to 100 µM.

Take `Cc1ccc(S(=O)(=O)c2[nH]cc(C(=O)N[C@@H](CC(N)=O)c3cccc(Cl)c3)c2-c2c(F)ccc(F)c2C)cc1` [I-817]: the Kd was < 10 µM.

In the case of `NC(=O)C[C@H](NS(=O)(=O)c1c[nH]nc1-c1ccccc1F)c1cccc(Cl)c1` [I-252], the Kd is > 200 µM.

For `Cc1c(F)ccc(F)c1-c1[nH]ncc1C(=O)N[C@H](CC(N)=O)c1ccc(F)c(Cl)c1` [I-818], the Kd is < 10 µM.

For `Cc1sc2c(c1C)C(c1ccc(Cl)cc1)=N[C@@H](CC(=O)NCCOCCOCCOCCOCCOCCn1ncc(C(=O)N[C@@H](CC(N)=O)c3cccc(Cl)c3)c1-c1ccccc1F)c1nnc(C)n1-2` [I-488], the Kd is 10 to 100 µM.

As for `COc1ccc([C@H](CC(N)=O)NC(=O)c2cn[nH]c2-c2ccccc2F)cc1` [I-136], the Kd is 100 to 200 µM.

Regarding `Fc1cccc(NC2CCCN(c3cc(N4CCOCC4)ncn3)C2)c1` (stereo not shown) [I-179], the Kd was > 200 µM.

For the compound `NCCOCCOCCOCCOCCOCCOCC(=O)c1[nH]cc(C(=O)N[C@@H](CC(N)=O)c2cccc(Cl)c2)c1-c1ccccc1F` [I-676], the Kd was < 10 µM.

Consider `NC(=O)CC(Cc1ccccc1)NC(=O)c1cn[nH]c1-c1cc(F)ccc1F` (stereo not shown) [I-814], for which the Kd fell in the range of 10 to 100 µM.

For `C=CC(=O)Nc1ccc2[nH]nc(C(=O)N[C@@H](CC(N)=O)c3cccc(Cl)c3)c2c1` [I-302], the Kd is > 200 µM.

For the compound `Cc1sc2c(c1C)C(c1ccccc1)=N[C@@H](CC(=O)NCCOCCOCCOCCOCCOCCOCCn1cc(C(=O)N[C@@H](CC(N)=O)c3cccc(Cl)c3)c(-c3ccccc3F)n1)c1nnc(C)n1-2` [I-493], the Kd is > 200 µM.

As for `c1cc2c(N3CCC[C@@H](Nc4cc(N5CCOCC5)ccn4)C3)nccc2cn1` [I-66], the Kd was 100 to 200 µM.

For the compound `COC(=O)C[C@H](NC(=O)c1cn[nH]c1-c1ccccc1F)c1cccc(Cl)c1` [I-757], the Kd is > 200 µM.

For `Clc1cccc(N2CCC[C@H]3[C@@H]2CCN3c2cc(N3CC4CC(C4)C3)ccn2)c1` [I-717], the Kd is < 10 µM.

As to `Cc1c(F)ccc(F)c1-c1c(C(=O)N[C@@H](CC(N)=O)c2cccc(Cl)c2)cn(C(C)C)c1C#N` [I-976], the Kd was < 10 µM.

For the compound `c1cc(N2CCOCC2)cc(N[C@@H]2CCCN(c3ccc4c(c3)CCC4)C2)n1` [I-508], the Kd lay within 100 to 200 µM.

As to `Fc1cccc(N2CCCC(N3CCc4c(N5CCCCC5)ccnc43)C2)c1` (stereo not shown) [I-789], the Kd is < 10 µM.

Consider `c1ccc2c(N3CCC[C@@H](Nc4cc(N5CCOCC5)ncn4)C3)nccc2c1` [I-390], for which the Kd was > 200 µM.

Take `Fc1cccc(N2CCC[C@@H](Nc3cncc(N4CCCCC4)c3)C2)c1` [I-528]: the Kd was > 200 µM.

As for `Fc1cccc(N2CCC[C@H](N3CCc4c(N5CC6CC(C6)C5)ccnc43)C2)c1` [I-840], the Kd was > 200 µM.

As for `OC1(c2ccccc2)CCC[C@@H](Nc2cc(N3CCCCC3)ccn2)C1` (stereo partly shown) [I-925], the Kd was in the range of 100 to 200 µM.

For `COc1ccc(N2CCC[C@@H](Nc3cncc(N4CCOCC4)c3)C2)cc1` [I-551], the Kd is > 200 µM.

`NC(=O)C[C@@]1(NC(=O)c2c[nH]nc2-c2ccccc2F)CCCc2c(Cl)cccc21` [I-155]: the Kd is > 200 µM.

For `Fc1cccc(N2CCC[C@@H](Nc3cc(C4=CCCOC4)ccn3)C2)c1` [I-122], the Kd was > 200 µM.

As to `NC(=O)C[C@H](NC(=O)c1cn[nH]c1[C@H]1CCCCO1)c1cccc(Cl)c1` [I-348], the Kd is > 200 µM.

Regarding `Cc1cccc(F)c1-c1[nH]ncc1C(=O)N[C@@H](CC(N)=O)c1cc(F)cc(Cl)c1` [I-748], the Kd is 10 to 100 µM.

As to `C=CC(=O)N[C@H]1CCN(c2ccnc(N[C@@H]3CCCN(c4cccc(F)c4)C3)c2)C1` [I-478], the Kd was > 200 µM.

As to `Fc1cccc(N2CCC[C@@H](N(CCC(F)F)c3cc(N4CCOCC4)ccn3)C2)c1` [I-290], the Kd was > 200 µM.

Take `COc1ccc(-c2ccncc2)cc1N1CCC[C@@H](Nc2cc(N3CCOCC3)ccn2)C1` [I-698]: the Kd was in the range of 10 to 100 µM.

Turning to `c1ccc2nc(N3CCC[C@@H](Nc4nccc(N5CCOCC5)n4)C3)ccc2c1` [I-37], the Kd was > 200 µM.

Turning to `C=CC(=O)Nc1cccc(N2CCC[C@@H](Nc3cc(N4CCOCC4)ccn3)C2)c1` [I-450], the Kd was > 200 µM.

As for `C[C@H]1CCCCN1c1ccnc(N2CC[C@H]3[C@@H]2CCCN3c2cccc(F)c2)c1` [I-644], the Kd lay in the range of 10 to 100 µM.

Turning to `C=CC(=O)N1C[C@H](c2ccc(Br)cc2)[C@@H]1C(=O)Nc1cccc2cccnc12` [I-517], the Kd is > 200 µM.

As for `NCCCc1ccc(N2CCC[C@@H](Nc3cc(N4CCOCC4)ccn3)C2)cc1` [I-856], the Kd is 10 to 100 µM.

As for `NC(=O)OCc1cc(F)cc(N2CCC[C@@H]3[C@H]2CCN3c2cc(N3CC4CC(C4)C3)ccn2)c1` [I-1036], the Kd was 10 to 100 µM.

Consider `c1cnc2c(N3CCC[C@@H](Nc4cc(N5CCOCC5)ccn4)C3)nccc2c1` [I-64], for which the Kd fell in the range of 100 to 200 µM.

Turning to `Cc1ccc(N2CCOCC2)cc1N[C@@H]1CCCN(c2cccc(F)c2)C1` [I-70], the Kd was > 200 µM.

In the case of `c1cc(N2CCC[C@@H](Nc3nccc(N4CCOCC4)n3)C2)c2cnccc2c1` [I-31], the Kd was > 200 µM.

For `CCCN1CCN(c2ccnc(N[C@@H]3CCCN(c4cccc(F)c4)C3)n2)CC1` [I-317], the Kd is > 200 µM.

With `COCCOCCOCC[C@@H]1CN(c2cc(N3CCCCC3)ccn2)[C@H]2CCCN(c3cccc(F)c3)[C@@H]12` [I-950], the Kd was in the range of 10 to 100 µM.

Consider `c1cnc2ccc(N3CCC[C@@H](Nc4cc(N5CCOCC5)ncn4)C3)cc2c1` [I-400], for which the Kd was > 200 µM.

Take `NC(=O)CC1(NC(=O)c2cn[nH]c2-c2ccccc2F)CCc2ccc(Cl)cc21` (stereo not shown) [I-607]: the Kd lay in the range of 10 to 100 µM.

`Nc1cc(N[C@@H]2CCCN(c3cccc(F)c3)C2)cc(N2CCOCC2)c1` [I-538]: the Kd was < 10 µM.

Take `Fc1cccc(N2C[C@@H](F)C[C@@H](Nc3cc(N4CCOCC4)ccn3)C2)c1` [I-541]: the Kd is 100 to 200 µM.

As to `NCCNc1cnc(N2CCCCC2)nc1N[C@@H]1CCCN(c2cccc(F)c2)C1` [I-1014], the Kd fell in the range of 10 to 100 µM.

With `Fc1cccc(N2CC[C@@]3(CCN(c4cc(N5CCCCC5)ccn4)C3)C2)c1` [I-659], the Kd fell in the range of 10 to 100 µM.

As to `OCCC[C@H]1C[C@@H]2[C@@H](CCCN2c2cccc(F)c2)N1c1cc(N2CCCCC2)ccn1` [I-825], the Kd is 10 to 100 µM.

Consider `COC(C)(c1cc(N2CCOCC2)ccn1)C1CCCN(c2cccc(F)c2)C1` (stereo not shown) [I-262], for which the equilibrium dissociation constant (Kd) was > 200 µM.

Turning to `Cc1c(F)ccc(F)c1-c1[nH]ncc1C(=O)N[C@@H](c1cccc(Cl)c1)[C@H]1CCCS1(=O)=O` [I-1000], the Kd was < 10 µM.

Consider `NC(=O)CCc1ccc(F)c(-c2[nH]ncc2C(=O)N[C@@H](CC(N)=O)c2cccc(Cl)c2)c1` [I-522], for which the Kd lay in the range of 10 to 100 µM.

Regarding `Cc1cc(F)c(-c2[nH]ncc2C(=O)N[C@@H](CC(N)=O)c2cccc(Cl)c2)c(F)c1` [I-549], the dissociation constant Kd is < 10 µM.

For the compound `Fc1cccc(N2CCC[C@@H]3[C@H]2CCN3c2cc(N3CC4CC(C4)C3)ccn2)c1` [I-623], the Kd was < 10 µM.

Regarding `CN(c1ccnc(N[C@@H]2CCCN(c3cccc(F)c3)C2)c1)C1CCCC1` [I-555], the Kd was 10 to 100 µM.

Consider `Fc1cccc(N2CCC[C@@H](Nc3cc(N4C[C@@H]5C[C@H]4CO5)ncn3)C2)c1` [I-312], for which the Kd was > 200 µM.
